According to ChEMBL document CHEMBL4229425, “Discovery and characterization of N-(1,3-dialkyl-1H-indazol-6-yl)-1H-pyrazolo[4,3-b]pyridin-3-amine scaffold as mGlu4 positive allosteric modulators that mitigate CYP1A2 induction liability” (Bioorg Med Chem Lett, 2018):

Legend:
[1] = target: T1, Metabotropic glutamate receptor 4 (Homo sapiens, UniProt Q14833); test: Positive allosteric modulation of human mGluR4 expressed in CHO cells co-expressing Gqi5 assessed as increase in glutamate-induced calcium flux at 30 uM preincubated for 2.5 mins followed by glutamate addition by Fluo-4-AM dye based fluorescence assay relative to PHCCC; format: functional, cell-based
T1 sequence (Q14833 whole entry): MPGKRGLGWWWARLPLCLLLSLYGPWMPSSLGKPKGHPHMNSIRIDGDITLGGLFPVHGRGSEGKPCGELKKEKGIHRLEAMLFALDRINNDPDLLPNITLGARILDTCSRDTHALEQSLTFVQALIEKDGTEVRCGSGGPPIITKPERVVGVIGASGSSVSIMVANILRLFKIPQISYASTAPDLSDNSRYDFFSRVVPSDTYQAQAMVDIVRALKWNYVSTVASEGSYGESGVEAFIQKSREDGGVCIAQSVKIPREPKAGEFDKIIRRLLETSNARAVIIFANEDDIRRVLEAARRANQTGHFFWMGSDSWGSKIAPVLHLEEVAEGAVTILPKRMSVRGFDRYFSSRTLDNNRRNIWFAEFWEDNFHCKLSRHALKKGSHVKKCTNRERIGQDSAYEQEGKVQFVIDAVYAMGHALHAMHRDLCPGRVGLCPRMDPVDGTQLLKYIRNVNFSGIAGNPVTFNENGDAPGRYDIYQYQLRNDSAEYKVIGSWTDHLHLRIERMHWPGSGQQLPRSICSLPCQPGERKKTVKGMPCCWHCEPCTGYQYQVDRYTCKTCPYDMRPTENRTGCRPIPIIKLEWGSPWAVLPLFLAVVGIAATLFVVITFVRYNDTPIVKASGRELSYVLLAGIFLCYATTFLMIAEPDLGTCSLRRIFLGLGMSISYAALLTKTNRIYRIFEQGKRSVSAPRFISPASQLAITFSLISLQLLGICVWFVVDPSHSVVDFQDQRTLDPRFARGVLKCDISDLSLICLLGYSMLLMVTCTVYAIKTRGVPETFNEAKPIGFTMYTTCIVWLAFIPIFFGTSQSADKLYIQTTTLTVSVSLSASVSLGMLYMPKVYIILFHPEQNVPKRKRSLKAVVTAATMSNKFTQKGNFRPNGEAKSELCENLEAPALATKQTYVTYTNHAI

[2] = target: T1, Metabotropic glutamate receptor 4; test: Positive allosteric modulation of human mGluR4 expressed in CHO cells co-expressing Gqi5 assessed as increase in glutamate-induced calcium flux preincubated for 2.5 mins followed by glutamate addition by Fluo-4-AM dye based fluorescence assay; format: functional, cell-based
Cytochrome P450 1A2 = target: T2, Cytochrome P450 1A2 (Homo sapiens, UniProt P05177); test: Inhibition of CYP1A2 in human liver microsomes; format: ADME
T2 sequence (P05177 whole entry): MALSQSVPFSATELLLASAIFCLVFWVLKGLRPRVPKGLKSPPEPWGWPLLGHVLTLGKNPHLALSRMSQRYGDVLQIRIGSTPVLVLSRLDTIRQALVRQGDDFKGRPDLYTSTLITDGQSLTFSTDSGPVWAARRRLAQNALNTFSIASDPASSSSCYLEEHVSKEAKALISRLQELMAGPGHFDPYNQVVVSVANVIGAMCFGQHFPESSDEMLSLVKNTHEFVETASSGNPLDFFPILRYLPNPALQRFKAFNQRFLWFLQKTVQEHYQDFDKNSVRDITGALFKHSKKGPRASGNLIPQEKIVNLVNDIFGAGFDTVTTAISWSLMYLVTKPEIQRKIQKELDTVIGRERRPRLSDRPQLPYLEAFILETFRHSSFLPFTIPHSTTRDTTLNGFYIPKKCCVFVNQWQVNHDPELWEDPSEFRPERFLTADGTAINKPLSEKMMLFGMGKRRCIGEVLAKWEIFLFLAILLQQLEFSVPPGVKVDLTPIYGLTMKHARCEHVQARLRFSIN

[3] = Fraction unbound in rat plasma; format: ADME, cell-free
[4] = target: T3, CYP1A2 (induction through the aryl hydrocarbon receptor, AhR) (Homo sapiens, UniProt P35869); test: Activation of human AhR assessed as induction of CYP1A2 relative to control; format: ADME; conditions: read-out: FC
T3 sequence (P35869 whole entry): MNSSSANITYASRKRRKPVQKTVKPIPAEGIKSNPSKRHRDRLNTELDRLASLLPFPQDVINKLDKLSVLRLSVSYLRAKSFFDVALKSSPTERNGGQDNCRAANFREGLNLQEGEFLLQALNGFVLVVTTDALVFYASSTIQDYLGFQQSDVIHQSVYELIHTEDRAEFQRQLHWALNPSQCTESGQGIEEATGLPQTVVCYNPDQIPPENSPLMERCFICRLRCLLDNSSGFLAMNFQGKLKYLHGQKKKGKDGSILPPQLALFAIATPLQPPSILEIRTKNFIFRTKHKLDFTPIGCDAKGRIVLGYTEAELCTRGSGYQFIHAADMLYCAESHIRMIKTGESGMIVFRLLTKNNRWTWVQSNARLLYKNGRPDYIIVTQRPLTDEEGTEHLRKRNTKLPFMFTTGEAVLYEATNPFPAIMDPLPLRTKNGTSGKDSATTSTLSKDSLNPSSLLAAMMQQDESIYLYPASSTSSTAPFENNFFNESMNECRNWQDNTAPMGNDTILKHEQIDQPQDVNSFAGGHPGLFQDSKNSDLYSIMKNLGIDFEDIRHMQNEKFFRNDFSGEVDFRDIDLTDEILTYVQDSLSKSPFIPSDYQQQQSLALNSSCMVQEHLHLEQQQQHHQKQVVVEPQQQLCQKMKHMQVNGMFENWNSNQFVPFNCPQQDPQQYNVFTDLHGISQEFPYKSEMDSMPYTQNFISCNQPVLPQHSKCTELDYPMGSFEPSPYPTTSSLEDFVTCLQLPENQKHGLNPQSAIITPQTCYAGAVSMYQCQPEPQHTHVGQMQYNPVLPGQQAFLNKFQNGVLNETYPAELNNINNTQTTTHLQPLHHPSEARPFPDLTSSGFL

[5] = Clearance in rat liver microsomes; format: ADME, microsome
[6] = Fraction unbound in human plasma; format: ADME, cell-free
MDR1 (P-gp) = test: Efflux ratio of permeability in MDCK-MDR1 cells; format: ADME, cell-based, Canis lupus familiaris; conditions: dog
[7] = Unbound brain to plasma concentration ratio in rat at 10 mg/kg, po after 1 hr; format: ADME, organism-based; conditions: brain and plasma, read-out: K(p,uu,brain)
[8] = Brain to plasma partition coefficient, Kp of the compound in rat at 10 mg/kg, po after 1 hr; format: ADME, organism-based; conditions: brain and plasma
[9] = Drug uptake in rat brain at 10 mg/kg, po after 1 hr; format: ADME, organism-based; conditions: read-out: Drug uptake
[10] = Plasma concentration in rat at 10 mg/kg, po after 1 hr; format: ADME, organism-based

Row | Structure (SMILES) | Emax [1] | EC50 ([2]; read-out: EC50) | other results
1 | Cn1nc(C2CC2)c2ncc(Nc3n[nH]c4cccnc34)cc21 | 75% | 468 nM | 
2 | Cn1ccc2cc(Nc3n[nH]c4cccnc34)ccc21 | 83.8% | 3590 nM | 
3 | Cn1nc(OC2CCOCC2)c2ccc(Nc3n[nH]c4cccnc34)cc21 | 85.1% |  | 
4 | Cc1nn(C2CCCC2)c2ccc(Nc3n[nH]c4cccnc34)cc12 | 93.8% | 265 nM | 
5 | Cn1nc(C2CC2)c2ccc(Nc3n[nH]c4nccnc34)cc21 | 101% | 19.8 nM | IC50 (Cytochrome P450 1A2): 480 nM; fraction unbound [3]: 0.035; fold induction [4]: 2.3; CLhep predicted [5]: 22.4 mL/min/kg; fraction unbound [6]: 0.03
6 | CCn1nc(C)c2cc(Nc3n[nH]c4cccnc34)ccc21 | 78.3% | 95.1 nM | 
7 | Cn1ncc2ccc(Nc3n[nH]c4cccnc34)cc21 | 105% | 257 nM | IC50 (Cytochrome P450 1A2): 110 nM; fraction unbound [3]: 0.061; fold induction [4]: 154; CLhep predicted [5]: 10.7 mL/min/kg; fraction unbound [6]: 0.093
8 | Cn1nc(C(=O)N2CCC(F)(F)C2)c2ccc(Nc3n[nH]c4cccnc34)cc21 | 57.8% | 289 nM | 
9 | Cc1nn(CC2CCC2)c2ccc(Nc3n[nH]c4cccnc34)cc12 | 93.2% | 46.8 nM | 
10 | Cn1nc(C2CC2)c2ccc(Nc3n[nH]c4cccnc34)cc21 | 88.7% | 43 nM | IC50 (Cytochrome P450 1A2): 350 nM; fraction unbound [3]: 0.024; fold induction [4]: 2.3; efflux ratio (MDR1 (P-gp)): 1.2; Kp uu at 1 h [7]: 0.3; CLhep predicted [5]: 21.5 mL/min/kg; Kp at 1 h [8]: 1.04; concentration at 1 h [9]: 816 ng/g; concentration at 1 h [10]: 787 ng/mL; fraction unbound [6]: 0.022
11 | Cc1nn(C(C)C)c2cc(Nc3n[nH]c4cccnc34)ccc12 | 62% | 9890 nM | 
12 | CCc1nn(C)c2cc(Nc3n[nH]c4cccnc34)ccc12 | 94.5% | 37.9 nM | 
13 | Cn1nc(C(=O)NC2CC(F)(F)C2)c2ccc(Nc3n[nH]c4cccnc34)cc21 | 52.2% | 116 nM | 
14 | Cn1nc(C(=O)NC2CC(F)C2)c2ccc(Nc3n[nH]c4cccnc34)cc21 (centres undefined) | 74% | 794 nM | 
15 | CCn1nc(C2CC2)c2ccc(Nc3n[nH]c4cccnc34)cc21 | 36.2% | 1210 nM | Emax ([1]; tested as the 2H-labelled form): 97.4%
16 | Cn1nnc2ccc(Nc3n[nH]c4cccnc34)cc21 | 72.4% | 1430 nM | 
17 | Cn1nc(OCC2CCCCO2)c2ccc(Nc3n[nH]c4cccnc34)cc21 (centres undefined) | 100% |  | 
18 | Cc1c2ccc(Nc3n[nH]c4cccnc34)cc2nn1CC1CCC1 |  |  | EC50 ([2]; cho): Not Active
19 | Cn1nc(C2(C)CC2)c2ccc(Nc3n[nH]c4nccnc34)cc21 | 94.8% | 24.9 nM | 
20 | c1cnc2c(Nc3ccc4c(C5CC5)n[nH]c4c3)n[nH]c2c1 | 76.5% | 452 nM | IC50 (Cytochrome P450 1A2): 280 nM; fraction unbound [3]: 0.014; fold induction [4]: 13.5; CLhep predicted [5]: 30.8 mL/min/kg; fraction unbound [6]: 0.031
21 | Cc1nnc2ccc(Nc3n[nH]c4cccnc34)cn12 |  |  | EC50 ([2]; cho): Not Active
22 | Fc1ccc(Nc2n[nH]c3cccnc23)cc1Cl |  |  | IC50 (Cytochrome P450 1A2): < 100 nM; fraction unbound [3]: 0.028; CLhep predicted [5]: 12.1 mL/min/kg; fraction unbound [6]: 0.017
23 | Cn1nc(C(=O)N2CC[C@H](F)C2)c2ccc(Nc3n[nH]c4cccnc34)cc21 | 55.5% | 764 nM | 
24 | Cc1nn(C)c2cc(Nc3n[nH]c4cccnc34)ccc12 | 98% | 78.1 nM | IC50 (Cytochrome P450 1A2): < 100 nM; fraction unbound [3]: 0.089; fold induction [4]: 25; CLhep predicted [5]: 18.6 mL/min/kg; fraction unbound [6]: 0.058

Row | Structure (SMILES) | Emax [1] | EC50 ([2]; read-out: EC50) | other results
25 | Cn1nc(CC(F)(F)F)c2ccc(Nc3n[nH]c4cccnc34)cc21 | 62.7% | 95.5 nM | 
26 | Cc1c2ccc(Nc3n[nH]c4cccnc34)cc2nn1C1CCCC1 |  |  | EC50 ([2]; cho): Not Active
27 | [2H]C([2H])([2H])Cn1nc(C2CC2)c2ccc(Nc3n[nH]c4ncccc34)cc21 |  | 160 nM | 
28 | Cn1nc(C(F)(F)F)c2ccc(Nc3n[nH]c4cccnc34)cc21 | 77.5% | 119 nM | 
29 | FC(F)(F)Cn1nc(C2CC2)c2ccc(Nc3n[nH]c4cccnc34)cc21 |  |  | EC50 ([2]; cho): Not Active
30 | CCn1nc(Cl)c2cc(Nc3n[nH]c4cccnc34)ccc21 | 67% | 815 nM | 
31 | Cn1nc(C2(C)CC2)c2ccc(Nc3n[nH]c4ncccc34)cc21 | 84% | 129 nM | 
32 | Cn1nc(C(=O)N2CCCC2)c2ccc(Nc3n[nH]c4cccnc34)cc21 | 41.6% | 827 nM | 
33 | Cn1nc(C2CC2)c2ccc(Nc3n[nH]c4ncccc34)cc21 | 94.8% | 43.2 nM | IC50 (Cytochrome P450 1A2): 2600 nM; fraction unbound [3]: 0.031; fold induction [4]: 2.6; CLhep predicted [5]: 16.1 mL/min/kg; fraction unbound [6]: 0.03
34 | CN1CCC(Oc2nn(C)c3cc(Nc4n[nH]c5cccnc45)ccc23)CC1 | 88.3% | 1880 nM | 
35 | CC(C)Oc1nn(C)c2cc(Nc3n[nH]c4cccnc34)ccc12 | 70.9% |  | 
36 | Cn1cnc2ccc(Nc3n[nH]c4cccnc34)cc21 | 54.6% | > 10000 nM | 
37 | Cn1ncc2cc(Nc3n[nH]c4cccnc34)ccc21 | 110% | 870 nM | IC50 (Cytochrome P450 1A2): 530 nM; fraction unbound [3]: 0.127; fold induction [4]: 28; CLhep predicted [5]: 40.1 mL/min/kg; fraction unbound [6]: 0.118
38 | Cc1cc(COc2nn(C)c3cc(Nc4n[nH]c5cccnc45)ccc23)on1 | 107% |  | 
39 | CC(C)COc1nn(C)c2cc(Nc3n[nH]c4cccnc34)ccc12 | 86.7% |  | 
40 | Cn1nc(C(=O)NC2CCC2)c2ccc(Nc3n[nH]c4cccnc34)cc21 | 70.3% | 653 nM | 
41 | CCn1nc(C2CC2)c2ccc(Nc3n[nH]c4ncccc34)cc21 |  |  | Emax ([1]; tested as the 2H-labelled form): 75.7%
42 | Cn1nc(C(=O)N2CCC(F)(F)CC2)c2ccc(Nc3n[nH]c4cccnc34)cc21 | 89.5% | 498 nM | 
43 | Cc1nnc2cc(Nc3n[nH]c4cccnc34)ccn12 |  |  | EC50 ([2]; cho): Not Active
44 | Cc1nn(C)c2ccc(Nc3n[nH]c4cccnc34)cc12 | 105% | 345 nM | 
45 | Cn1nc(C(=O)N2CC[C@@H](F)C2)c2ccc(Nc3n[nH]c4cccnc34)cc21 | 41.9% | 907 nM | 
46 | [2H]C([2H])([2H])Cn1nc(C2CC2)c2ccc(Nc3n[nH]c4cccnc34)cc21 |  | 36.2 nM | 
47 | Cn1nc(C2(C)CC2)c2ccc(Nc3n[nH]c4cccnc34)cc21 | 83.7% | 67.9 nM | 
